Experimental data published in patent publication US20100160454A1, “ANTIMICROBIAL AGENTS, COMPOSITIONS AND PRODUCTS CONTAINING THE SAME, AND METHODS OF USING THE COMPOSITIONS AND PRODUCTS” (Eastman Chemical Company, priority 2008, published 2010).

Columns and labels:
Test in all cases: Microbiological challenge testing in BPW broth, graded subculture counts
Format in all cases: cell-based
[1] = system: Pseudomonas aeruginosa Wild type; settings: P. aeruginosa
Outline: (§1)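 TSB + 1% dextrose cultures, 35 ± 2 °C, ≥96 h. Inoculum calibrated by NTU vs plate counts; challenge at 10^5–10^6 CFU/mL final in BPW/1% dextrose with test material. Triplicates (butoxyethanol in duplicate). Spread plates on PCA, ≥48 h, CFU/mL = count × dilution.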

[2] = system: Escherichia coli ATCC 25922; settings: E. Coli
Outline: as §1

[3] = system: Proteus vulgaris Wild type
Outline: as §1

Aeromonas sp. Wild type = system: Aeromonas sp. Wild type
Outline: as §1

[4] = system: Staphylococcus aureus ATCC 25923; settings: S. aureus
Outline: as §1

[5] = system: Bacillus subtilis Wild type
Outline: as §1

## OCC1CCC(CO)CC1 (stereo not drawn) [1,4-CHDM, 1,4-cyclohexanedimethanol]
[1]; 0.5% (wt/vol), 3 day
  Grade: 4 (1000 to 10,000 colonies countable (thus 10,000 CFU/mL to 100,000 CFU/mL))
[1]; 0.5% (wt/vol), 13 day
  Grade: 4 (1000 to 10,000 colonies countable (thus 10,000 CFU/mL to 100,000 CFU/mL))
[1]; 0.5% (wt/vol), 30 day
  Grade: 4 (1000 to 10,000 colonies countable (thus 10,000 CFU/mL to 100,000 CFU/mL))
[1]; 1.25% (wt/vol), 3 day
  Grade: 4 (1000 to 10,000 colonies countable (thus 10,000 CFU/mL to 100,000 CFU/mL))
[1]; 1.25% (wt/vol), 13 day
  Grade: 3 (100 to 1000 colonies (thus 1000 to 10,000 CFU/mL))
[1]; 1.25% (wt/vol), 30 day
  Grade: 4 (1000 to 10,000 colonies countable (thus 10,000 CFU/mL to 100,000 CFU/mL))
[1]; 2.5% (wt/vol), 3 day
  Grade: 3 (100 to 1000 colonies (thus 1000 to 10,000 CFU/mL))
[1]; 2.5% (wt/vol), 13 day
  Grade: 2 (52 to 100 colonies counted (thus 520 to 1000 CFU/mL))
[1]; 2.5% (wt/vol), 30 day
  Grade: 0
[1]; 5.0% (wt/vol), 3 day
  Grade: 0
[1]; 5.0% (wt/vol), 13 day
  Grade: 0
[1]; 5.0% (wt/vol), 30 day
  Grade: 0
[2]; 0.5% (wt/vol), 3 day
  Grade: 5 (More than 10,000 colonies estimated (thus more than 100,000 CFU/mL))
[2]; 0.5% (wt/vol), 14 day
  Grade: 4 (1000 to 10,000 colonies countable (thus 10,000 CFU/mL to 100,000 CFU/mL))
[2]; 0.5% (wt/vol), 30 day
  Grade: 4 (1000 to 10,000 colonies countable (thus 10,000 CFU/mL to 100,000 CFU/mL))
[2]; 1.25% (wt/vol), 3 day
  Grade: 4 (1000 to 10,000 colonies countable (thus 10,000 CFU/mL to 100,000 CFU/mL))
[2]; 1.25% (wt/vol), 14 day
  Grade: 4 (1000 to 10,000 colonies countable (thus 10,000 CFU/mL to 100,000 CFU/mL))
[2]; 1.25% (wt/vol), 30 day
  Grade: 4 (1000 to 10,000 colonies countable (thus 10,000 CFU/mL to 100,000 CFU/mL))
[2]; 2.5% (wt/vol), 3 day
  Grade: 3 (100 to 1000 colonies (thus 1000 to 10,000 CFU/mL))
[2]; 2.5% (wt/vol), 14 day
  Grade: 2 (52 to 100 colonies counted (thus 520 to 1000 CFU/mL))
[2]; 2.5% (wt/vol), 30 day
  Grade: 0
[2]; 5.0% (wt/vol), 3 day
  Grade: 0
[2]; 5.0% (wt/vol), 14 day
  Grade: 0
[2]; 5.0% (wt/vol), 30 day
  Grade: 0
[3]; 0.5% weight/volume
  P. vulgaris growth grade, 3 day: 4 (1000 to 10,000 colonies countable (thus 10,000 CFU/mL to 100,000 CFU/mL))
  P. vulgaris growth grade, 13 day: 4 (1000 to 10,000 colonies countable (thus 10,000 CFU/mL to 100,000 CFU/mL))
  P. vulgaris growth grade, 30 day: 4 (1000 to 10,000 colonies countable (thus 10,000 CFU/mL to 100,000 CFU/mL))
[3]; 1.25% weight/volume
  P. vulgaris growth grade, 3 day: 3 (100 to 1000 colonies (thus 1000 to 10,000 CFU/mL))
  P. vulgaris growth grade, 13 day: 2 (52 to 100 colonies counted (thus 520 to 1000 CFU/mL))
  P. vulgaris growth grade, 30 day: 0
[3]; 2.5% weight/volume
  P. vulgaris growth grade, 3 day: 1 (0 to 51 colonies counted (thus 10 to 510 CFU/mL based on 0.1-mL sample))
  P. vulgaris growth grade, 13 day: 0
  P. vulgaris growth grade, 30 day: 0
[3]; 5.0% weight/volume
  P. vulgaris growth grade, 3 day: 0
  P. vulgaris growth grade, 13 day: 0
  P. vulgaris growth grade, 30 day: 0
Aeromonas sp. Wild type; 0.5% weight/volume
  Aeromonas sp growth grade, 3 day: 5 (More than 10,000 colonies estimated (thus more than 100,000 CFU/mL))
  Aeromonas sp growth grade, 14 day: 4 (1000 to 10,000 colonies countable (thus 10,000 CFU/mL to 100,000 CFU/mL))
  Aeromonas sp growth grade, 30 day: 4 (1000 to 10,000 colonies countable (thus 10,000 CFU/mL to 100,000 CFU/mL))
Aeromonas sp. Wild type; 1.25% weight/volume
  Aeromonas sp growth grade, 3 day: 4 (1000 to 10,000 colonies countable (thus 10,000 CFU/mL to 100,000 CFU/mL))
  Aeromonas sp growth grade, 14 day: 3 (100 to 1000 colonies (thus 1000 to 10,000 CFU/mL))
  Aeromonas sp growth grade, 30 day: 2 (52 to 100 colonies counted (thus 520 to 1000 CFU/mL))
Aeromonas sp. Wild type; 2.5% weight/volume
  Aeromonas sp growth grade, 3 day: 3 (100 to 1000 colonies (thus 1000 to 10,000 CFU/mL))
  Aeromonas sp growth grade, 14 day: 1 (0 to 51 colonies counted (thus 10 to 510 CFU/mL based on 0.1-mL sample))
  Aeromonas sp growth grade, 30 day: 0
Aeromonas sp. Wild type; 5.0% weight/volume
  Aeromonas sp growth grade, 3 day: 0
  Aeromonas sp growth grade, 14 day: 0
  Aeromonas sp growth grade, 30 day: 0
[4]; 0.5% (wt/vol), 3 day
  Grade: 4 (1000 to 10,000 colonies countable (thus 10,000 CFU/mL to 100,000 CFU/mL))
[4]; 0.5% (wt/vol), 14 day
  Grade: 4 (1000 to 10,000 colonies countable (thus 10,000 CFU/mL to 100,000 CFU/mL))
[4]; 0.5% (wt/vol), 30 day
  Grade: 4 (1000 to 10,000 colonies countable (thus 10,000 CFU/mL to 100,000 CFU/mL))
[4]; 1.25% (wt/vol), 3 day
  Grade: 3 (100 to 1000 colonies (thus 1000 to 10,000 CFU/mL))
[4]; 1.25% (wt/vol), 14 day
  Grade: 2.7
[4]; 1.25% (wt/vol), 30 day
  Grade: 4 (1000 to 10,000 colonies countable (thus 10,000 CFU/mL to 100,000 CFU/mL))
[4]; 2.5% (wt/vol), 3 day
  Grade: 1.7
[4]; 2.5% (wt/vol), 14 day
  Grade: 1 (0 to 51 colonies counted (thus 10 to 510 CFU/mL based on 0.1-mL sample))
[4]; 2.5% (wt/vol), 30 day
  Grade: 0
[4]; 5.0% (wt/vol), 3 day
  Grade: 0
[4]; 5.0% (wt/vol), 14 day
  Grade: 0
[4]; 5.0% (wt/vol), 30 day
  Grade: 0
[5]; 0.5% weight/volume
  B. subtillis growth grade, 3 day: 4 (1000 to 10,000 colonies countable (thus 10,000 CFU/mL to 100,000 CFU/mL))
  B. subtillis growth grade, 14 day: 4 (1000 to 10,000 colonies countable (thus 10,000 CFU/mL to 100,000 CFU/mL))
  B. subtillis growth grade, 30 day: 4 (1000 to 10,000 colonies countable (thus 10,000 CFU/mL to 100,000 CFU/mL))
[5]; 1.25% weight/volume
  B. subtillis growth grade, 3 day: 4 (1000 to 10,000 colonies countable (thus 10,000 CFU/mL to 100,000 CFU/mL))
  B. subtillis growth grade, 14 day: 4 (1000 to 10,000 colonies countable (thus 10,000 CFU/mL to 100,000 CFU/mL))
  B. subtillis growth grade, 30 day: 4 (1000 to 10,000 colonies countable (thus 10,000 CFU/mL to 100,000 CFU/mL))
[5]; 2.5% weight/volume
  B. subtillis growth grade, 3 day: 3 (100 to 1000 colonies (thus 1000 to 10,000 CFU/mL))
  B. subtillis growth grade, 14 day: 2 (52 to 100 colonies counted (thus 520 to 1000 CFU/mL))
  B. subtillis growth grade, 30 day: 1 (0 to 51 colonies counted (thus 10 to 510 CFU/mL based on 0.1-mL sample))
[5]; 5.0% weight/volume
  B. subtillis growth grade, 3 day: 1 (0 to 51 colonies counted (thus 10 to 510 CFU/mL based on 0.1-mL sample))
  B. subtillis growth grade, 14 day: 0
  B. subtillis growth grade, 30 day: 0

## CCCCOCCO [EB, 2-butoxyethanol]
[1]; 2.5% (wt/vol), 3 day
  Grade: 4 (1000 to 10,000 colonies countable (thus 10,000 CFU/mL to 100,000 CFU/mL))
[1]; 2.5% (wt/vol), 13 day
  Grade: 4 (1000 to 10,000 colonies countable (thus 10,000 CFU/mL to 100,000 CFU/mL))
[1]; 2.5% (wt/vol), 30 day
  Grade: 4 (1000 to 10,000 colonies countable (thus 10,000 CFU/mL to 100,000 CFU/mL))
[1]; 5.0% (wt/vol), 3 day
  Grade: 0
[1]; 5.0% (wt/vol), 13 day
  Grade: 0
[1]; 5.0% (wt/vol), 30 day
  Grade: 0
[2]; 2.5% (wt/vol), 3 day
  Grade: 4 (1000 to 10,000 colonies countable (thus 10,000 CFU/mL to 100,000 CFU/mL))
[2]; 2.5% (wt/vol), 14 day
  Grade: 4 (1000 to 10,000 colonies countable (thus 10,000 CFU/mL to 100,000 CFU/mL))
[2]; 2.5% (wt/vol), 30 day
  Grade: 4 (1000 to 10,000 colonies countable (thus 10,000 CFU/mL to 100,000 CFU/mL))
[2]; 5.0% (wt/vol), 3 day
  Grade: 1 (0 to 51 colonies counted (thus 10 to 510 CFU/mL based on 0.1-mL sample))
[2]; 5.0% (wt/vol), 14 day
  Grade: 0
[2]; 5.0% (wt/vol), 30 day
  Grade: 0
[3]; 2.5% weight/volume
  P. vulgaris growth grade, 3 day: 4 (1000 to 10,000 colonies countable (thus 10,000 CFU/mL to 100,000 CFU/mL))
  P. vulgaris growth grade, 13 day: 4 (1000 to 10,000 colonies countable (thus 10,000 CFU/mL to 100,000 CFU/mL))
  P. vulgaris growth grade, 30 day: 4 (1000 to 10,000 colonies countable (thus 10,000 CFU/mL to 100,000 CFU/mL))
[3]; 5.0% weight/volume
  P. vulgaris growth grade, 3 day: 0
  P. vulgaris growth grade, 13 day: 0
  P. vulgaris growth grade, 30 day: 0
Aeromonas sp. Wild type; 2.5% weight/volume
  Aeromonas sp growth grade, 3 day: 4 (1000 to 10,000 colonies countable (thus 10,000 CFU/mL to 100,000 CFU/mL))
  Aeromonas sp growth grade, 14 day: 4 (1000 to 10,000 colonies countable (thus 10,000 CFU/mL to 100,000 CFU/mL))
  Aeromonas sp growth grade, 30 day: 4 (1000 to 10,000 colonies countable (thus 10,000 CFU/mL to 100,000 CFU/mL))
Aeromonas sp. Wild type; 5.0% weight/volume
  Aeromonas sp growth grade, 3 day: 1 (0 to 51 colonies counted (thus 10 to 510 CFU/mL based on 0.1-mL sample))
  Aeromonas sp growth grade, 14 day: 0
  Aeromonas sp growth grade, 30 day: 0
[4]; 2.5% (wt/vol), 3 day
  Grade: 4 (1000 to 10,000 colonies countable (thus 10,000 CFU/mL to 100,000 CFU/mL))
[4]; 2.5% (wt/vol), 14 day
  Grade: 4 (1000 to 10,000 colonies countable (thus 10,000 CFU/mL to 100,000 CFU/mL))
[4]; 2.5% (wt/vol), 30 day
  Grade: 4 (1000 to 10,000 colonies countable (thus 10,000 CFU/mL to 100,000 CFU/mL))
[4]; 5.0% (wt/vol), 3 day
  Grade: 2 (52 to 100 colonies counted (thus 520 to 1000 CFU/mL))
[4]; 5.0% (wt/vol), 14 day
  Grade: 0
[4]; 5.0% (wt/vol), 30 day
  Grade: 0
[5]; 2.5% weight/volume
  B. subtillis growth grade, 3 day: 4 (1000 to 10,000 colonies countable (thus 10,000 CFU/mL to 100,000 CFU/mL))
  B. subtillis growth grade, 14 day: 4 (1000 to 10,000 colonies countable (thus 10,000 CFU/mL to 100,000 CFU/mL))
  B. subtillis growth grade, 30 day: 4 (1000 to 10,000 colonies countable (thus 10,000 CFU/mL to 100,000 CFU/mL))
[5]; 5.0% weight/volume
  B. subtillis growth grade, 3 day: 1 (0 to 51 colonies counted (thus 10 to 510 CFU/mL based on 0.1-mL sample))
  B. subtillis growth grade, 14 day: 0
  B. subtillis growth grade, 30 day: 0
